# Where “and” joins values, the source holds several entries; their conditions need not be identical. Equal values may be shown once. Toxic doses and inconclusive results are not listed.
# System: P388 leukemia ip, CD2F1 mice, survival T/C
# Experiment: NCI In Vivo Anticancer Drug Screen. Data for tumor model P388 Leukemia (intraperitoneal) in CD2F1 (CDF1) mice
# Details: endpoint: median survival time, higher = longer survival
# In short: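 Mice carrying the transplanted tumor received test compound or vehicle. Survival was recorded in each group, and the value is the treated-group measurement divided by that of the vehicle-treated control group.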
# [1] = dose: 100.0 mg/kg/injection, schedule: Q04DX003 (ip), vehicle: saline with Tween-80
# [2] = dose: 200.0 mg/kg/injection, schedule: Q04DX003 (ip), vehicle: saline with Tween-80
# [3] = dose: 400.0 mg/kg/injection, schedule: Q04DX003 (ip), vehicle: saline with Tween-80
# [4] = dose: 50.0 mg/kg/injection, schedule: Q01DX009 (ip), vehicle: saline with Tween-80
# [5] = dose: 100.0 mg/kg/injection, schedule: Q01DX009 (ip), vehicle: saline with Tween-80
# [6] = dose: 200.0 mg/kg/injection, schedule: Q01DX009 (ip), vehicle: saline
# [7] = dose: 50.0 mg/kg/injection, schedule: Q01DX009 (ip), vehicle: Klucel (hydroxypropylcellulose) (HPC)
# [8] = dose: 100.0 mg/kg/injection, schedule: Q01DX009 (ip), vehicle: Klucel (hydroxypropylcellulose) (HPC)
# [9] = dose: 50.0 mg/kg/injection, schedule: Q01DX005 (ip), vehicle: saline with Tween-80
# [10] = dose: 50.0 mg/kg/injection, schedule: Q04DX003 (ip), vehicle: saline
# [11] = dose: 100.0 mg/kg/injection, schedule: Q01DX005 (ip), vehicle: saline with Tween-80
# [12] = dose: 50.0 mg/kg/injection, schedule: Q01DX009 (ip), vehicle: saline
# [13] = dose: 100.0 mg/kg/injection, schedule: Q01DX009 (ip), vehicle: saline
# [14] = dose: 12.5 mg/kg/injection, schedule: Q01DX005 (ip), vehicle: saline with Tween-80
# [15] = dose: 25.0 mg/kg/injection, schedule: Q01DX005 (ip), vehicle: saline with Tween-80
# [16] = dose: 60.0 mg/kg/injection, schedule: Q01DX005 (ip), vehicle: saline with Tween-80
# [17] = dose: 120.0 mg/kg/injection, schedule: Q01DX005 (ip), vehicle: saline with Tween-80
# [18] = dose: 240.0 mg/kg/injection, schedule: Q01DX005 (ip), vehicle: saline with Tween-80
# [19] = dose: 200.0 mg/kg/injection, schedule: Q01DX009 (ip), vehicle: saline with Tween-80
smiles,measurement,setting,value
CCCC(NC(=O)C(C)Br)C(=O)O (stereo not drawn),T/C,[1],95 % of control
same,T/C,[2],100 % of control
same,T/C,[3],100 % of control
CC(=O)O.CC(=O)O.CC(=O)O.CC(=O)O.[Cu].[Cu],T/C,"dose: 6.25 mg/kg/injection, schedule: Q04DX002 (ip), vehicle: Klucel (hydroxypropylcellulose) (HPC)",91 % of control
same,T/C,"dose: 12.5 mg/kg/injection, schedule: Q04DX002 (ip), vehicle: Klucel (hydroxypropylcellulose) (HPC)",100 % of control
CC1N[P+]2(Nc3ccccc3O2)OC1=O (stereo not drawn),T/C,"dose: 100.0 mg/kg/injection, schedule: Q01DX001 (ip), vehicle: Klucel (hydroxypropylcellulose) (HPC)",103 % of control
same,T/C,"dose: 200.0 mg/kg/injection, schedule: Q01DX001 (ip), vehicle: Klucel (hydroxypropylcellulose) (HPC)",103 % of control
same,T/C,"dose: 400.0 mg/kg/injection, schedule: Q01DX001 (ip), vehicle: Klucel (hydroxypropylcellulose) (HPC)",106 % of control
CCOC(=O)N(C)C(C)=O,T/C,"dose: 6.25 mg/kg/injection, schedule: Q01DX009 (ip), vehicle: saline with Tween-80",100 % of control
same,T/C,"dose: 12.5 mg/kg/injection, schedule: Q01DX009 (ip), vehicle: saline with Tween-80",97 % of control
same,T/C,"dose: 25.0 mg/kg/injection, schedule: Q01DX009 (ip), vehicle: saline with Tween-80",106 % of control
same,T/C,[4],104 % of control
same,T/C,[5],96 % of control
same,T/C,[6],103 % of control
CCN1C2=NCCN2C(=O)c2ccccc21,T/C,[7],97 % of control
same,T/C,[8],97 % of control
CC(/C=N/NC(=O)C[n+]1ccccc1)=N/NC(=O)C[n+]1ccccc1,T/C,"dose: 3.12 mg/kg/injection, schedule: Q01DX005 (ip), vehicle: saline",96 % of control and 98 % of control
same,T/C,"dose: 6.25 mg/kg/injection, schedule: Q01DX005 (ip), vehicle: saline",97 % of control and 98 % of control
same,T/C,"dose: 12.5 mg/kg/injection, schedule: Q01DX005 (ip), vehicle: saline",99 % of control and 97 % of control
same,T/C,"dose: 25.0 mg/kg/injection, schedule: Q01DX005 (ip), vehicle: saline",99 % of control and 101 % of control
same,T/C,[9],95 % of control
NCCCCS(=O)(=O)Nc1ccc(Nc2c3ccccc3nc3cc([N+](=O)[O-])ccc23)cc1,T/C,"dose: 22.0 mg/kg/injection, schedule: Q04DX003 (ip), vehicle: saline",122 % of control
same,T/C,"dose: 38.9 mg/kg/injection, schedule: Q04DX003 (ip), vehicle: water",164 % of control
same,T/C,[10],150 % of control
same,T/C,"dose: 64.8 mg/kg/injection, schedule: Q04DX003 (ip), vehicle: water",180 % of control
same,T/C,"dose: 75.0 mg/kg/injection, schedule: Q04DX003 (ip), vehicle: saline",150 % of control
same,T/C,"dose: 108.0 mg/kg/injection, schedule: Q04DX003 (ip), vehicle: water",198 % of control
same,T/C,"dose: 150.0 mg/kg/injection, schedule: Q04DX003 (ip), vehicle: saline",172 % of control
same,T/C,"dose: 180.0 mg/kg/injection, schedule: Q04DX003 (ip), vehicle: water",99 % of control
same,T/C,"dose: 300.0 mg/kg/injection, schedule: Q04DX003 (ip), vehicle: saline",118 % of control
CCOC(=O)N(O)c1ccc(C)cc1C,T/C,[9],96 % of control
same,T/C,[11],102 % of control
CC1(C)N=C(N)N=C(N)N1c1cccc(CCCCc2ccc(Cl)c(S(=O)(=O)F)c2)c1,T/C,"dose: 9.33 mg/kg/injection, schedule: Q01DX009 (ip), vehicle: saline",118 % of control
CCOC(=O)N1CCc2cc(OC)c(O)cc2C1CC1=CC(=O)C(OC)=CC1=O (stereo not drawn),T/C,"dose: 100.0 mg/kg/injection, schedule: Q04DX002 (ip), vehicle: saline with Tween-80",102 % of control
same,T/C,"dose: 200.0 mg/kg/injection, schedule: Q04DX002 (ip), vehicle: saline with Tween-80",100 % of control
same,T/C,"dose: 400.0 mg/kg/injection, schedule: Q04DX002 (ip), vehicle: saline with Tween-80",97 % of control
COc1ccc2ccccc2c1C1=CC(c2ccccc2)C(C(=O)Cc2ccccc2)C(=O)N1 (stereo not drawn),T/C,[1],101 % of control
same,T/C,[2],92 % of control
same,T/C,[3],101 % of control
N=c1ccn2c(n1)OC1C(O)C(CCl)OC12 (stereo not drawn),T/C,"dose: 6.25 mg/kg/injection, schedule: Q01DX009 (ip), vehicle: saline",108 % of control
same,T/C,"dose: 12.5 mg/kg/injection, schedule: Q01DX009 (ip), vehicle: saline",111 % of control
same,T/C,"dose: 25.0 mg/kg/injection, schedule: Q01DX009 (ip), vehicle: saline",106 % of control and 92 % of control
same,T/C,[12],103 % of control and 106 % of control
same,T/C,[13],100 % of control and 107 % of control
same,T/C,[6],110 % of control and 117 % of control
O=S1(=O)C=C(Cl)C2C3CC(C(Cl)C3Cl)C21 (stereo not drawn),T/C,"dose: 15.0 mg/kg/injection, schedule: Q04DX003 (ip), vehicle: saline",100 % of control
same,T/C,"dose: 30.0 mg/kg/injection, schedule: Q04DX003 (ip), vehicle: saline",91 % of control
CC(C)(C)N(O)N=O.CC(C)(C)N(O)N=O.[Cu],T/C,"dose: 6.25 mg/kg/injection, schedule: Q01DX001 (ip), vehicle: saline with Tween-80",103 % of control
c1cc2c(cc1CC1CCNC1)OCO2 (stereo not drawn),T/C,"dose: 5.0 mg/kg/injection, schedule: Q01DX009 (ip), vehicle: saline",95 % of control
same,T/C,"dose: 10.0 mg/kg/injection, schedule: Q01DX009 (ip), vehicle: saline",100 % of control
same,T/C,"dose: 20.0 mg/kg/injection, schedule: Q01DX009 (ip), vehicle: saline",95 % of control
CCN(CC)c1nc(N(CC)CC)c2[nH]cnc2n1,T/C,[14],102 % of control
same,T/C,[15],100 % of control
same,T/C,[9],98 % of control and 105 % of control
same,T/C,[11],105 % of control
O=C1CCCCCCCC(=O)Nc2ccc3nc4ccccc4c(c3c2)SCCCCCCCCCSc2c3ccccc3nc3ccc(cc23)N1,T/C,[16],88 % of control
same,T/C,[17],99 % of control
same,T/C,[18],96 % of control
COc1ccc(CSC(=S)Nc2ccc(Cl)cc2Cl)cc1,T/C,[12],106 % of control
same,T/C,[13],105 % of control
same,T/C,[6],99 % of control
CCOC(=O)CS(=O)(=O)CCCS(=O)(=O)CC(=O)OCC,T/C,[12],97 % of control
same,T/C,[13],96 % of control
same,T/C,[6],94 % of control
CCOc1ccc2nc3cc(N=Nc4c(C)c(CN(CC)CC)cc(C)c4O)ccc3c(N)c2c1,T/C,[4],108 % of control
same,T/C,[5],100 % of control
same,T/C,[19],106 % of control
COC(=O)C1CC(C(=O)OC)C2C(C(=O)OC)CC(C(=O)OC)C12 (stereo not drawn),T/C,[16],99 % of control
same,T/C,[17],96 % of control
same,T/C,[18],99 % of control
O=C1c2ccccc2-c2nc3cncnc3nc21 (tested in a mixture with another compound),T/C,[10],109 % of control
same,T/C,"dose: 100.0 mg/kg/injection, schedule: Q04DX003 (ip), vehicle: saline",109 % of control
same,T/C,"dose: 200.0 mg/kg/injection, schedule: Q04DX003 (ip), vehicle: saline",104 % of control
CCCCCCOCCN1CCN(CCCN2c3ccccc3Sc3ccc(C(F)(F)F)cc32)CC1,T/C,"dose: 3.12 mg/kg/injection, schedule: Q01DX009 (ip), vehicle: saline with Tween-80",100 % of control
COc1cccc(OC)c1OC(=O)Nc1ccccc1F,T/C,[16],102 % of control
same,T/C,[17],105 % of control
same,T/C,[18],102 % of control
O=C1C=CC(=O)N1c1ccc(-c2nc3ccccc3o2)cc1,T/C,"dose: 6.25 mg/kg/injection, schedule: Q01DX005 (ip), vehicle: saline with Tween-80",109 % of control
same,T/C,[14],109 % of control
same,T/C,[15],109 % of control and 111 % of control
same,T/C,[9],111 % of control
COc1cc(N=Nc2ccc([N+](=O)[O-])cc2)ccc1N(CCCl)CCCl,T/C,[4],151 % of control
same,T/C,[5],153 % of control and 156 % of control
same,T/C,[19],168 % of control and 201 % of control
COc1ccc(Cc2nnc(C)c3c(C)[nH]nc23)cc1,T/C,[7],91 % of control
same,T/C,[8],91 % of control
same,T/C,"dose: 200.0 mg/kg/injection, schedule: Q01DX009 (ip), vehicle: Klucel (hydroxypropylcellulose) (HPC)",86 % of control
CC(C)C1NC(=O)C2=CN(Cc3ccccc3)C=CC2NC(=O)C(C(C)C)NC(=O)C2=CN(Cc3ccccc3)C=CC2NC1=O (stereo not drawn),T/C,[16],94 % of control
same,T/C,[17],100 % of control
same,T/C,[18],97 % of control
CCCc1c(C)nc2scc(-c3ccccc3)n2c1=O,T/C,[4],105 % of control
same,T/C,[5],99 % of control
same,T/C,[19],99 % of control

# Source: PubChem BioAssay AID330 (DTP/NCI, 2004)
